Laboratory results: US20250065246A1, “SOLVENT COMPOSITION FOR NATURAL MATERIAL EXTRACTION” (GS CALTEX CORPORATION, priority 2018, published 2025)

What was measured:
A. niger = experiment: Evaluation of antibacterial property, minimum inhibitory concentration; type: cell-based
Description: (§1) To evaluate an antibacterial property of the solvent compositions for extracting a natural material in examples 2 and 3, and comparative examples 3 and 4, minimum inhibitory concentration (MIC; %) of a total of five microorganisms was measured. A lower minimum inhibitory concentration (%) may denote a more excellent antibacterial property.

S. aureus = experiment: as above; type: cell-based
Description: as §1

C. albicans = experiment: as above; type: cell-based
Description: as §1

E. coli = experiment: as above; type: cell-based
Description: as §1

P. aeruginosa = experiment: as above; type: cell-based
Description: as §1

skin = experiment: Evaluation of skin irritation, patch test (PCPC Safety Evaluation Guidelines, ICDRG standard); type: in vivo, human; details: patch test on 32 people, 30 wt %
Description: To evaluate skin irritation caused by solvent compositions for extracting a natural material in example 1 and comparative examples 1, 2 and 3, a patch test was conducted on a total of 32 people. The solvent compositions for extracting a natural material in example 1 and comparative examples 1, 2 and 3 were all at a concentration of 30 wt %, and the patch test was performed under the PCPC Safety Evaluation Guidelines and the ICDRG standard.

Row | SMILES | A. niger (MIC %) (A. niger) | S. aureus (MIC %) (S. aureus) | C. albicans (MIC %) (C. albicans) | E. coli (MIC %) (E. coli) | P. aeruginosa (MIC %) (P. aeruginosa) | Cases with skin irritation (skin) | Skin irritation category under ICDRG standard (skin) | Skin irritation index 30 minutes (skin) | Skin irritation index 24 hours (skin) | Skin irritation index 48 hours (skin) | Cases with skin irritation (skin; listed as comparative example 3)
1 | CC(O)C(C)O (single isomer, unassigned) [Example 2, levo-2,3-butanediol] | 12.5% | 25% | 12.5% | 15% | 10% | – | – | – | – | – | –
2 | OCCCO [Comparative example 4, 1,3-propanediol] | 25% | 25% | 25% | 22% | 12.5% | – | – | – | – | – | –
3 | OCCCO [Comparative example 2, 1,3-propanediol] | – | – | – | – | – | 0 | no skin irritation | 0.0 | 0.0 | 0.0 | –
4 | CC(O)C(C)O (centres unmarked) [Example 1, 2,3-butanediol] | – | – | – | – | – | 0 | no skin irritation | 0.0 | 0.0 | 0.0 | –
5 | CC(O)CCO (centres unmarked) [Comparative example 3, 1,3-butanediol] | 12.5% | 25% | 12.5% | 17.5% | 12.5% | 2 | minor skin irritation | 0.5 | 0.0 | 0.0 | two
6 | CC(O)C(C)O (centres unmarked) [compound 1, 2,3-butanediol] | – | – | – | – | – | 0 | no skin irritation | 0.0 | 0.0 | 0.0 | –
7 | CC(O)C(C)O (single isomer, unassigned) [Example 3, meso-2,3-butanediol] | 12.5% | 25% | 12.5% | 12.5% | 6.25% | – | – | – | – | – | –
